{"source": "ChEMBL document CHEMBL3885881", "about": "“DrugMatrix”", "species": "Rattus norvegicus", "test": "DrugMatrix - Regimen: Daily Repeat", "type": "toxicity, organism-based, Sprague-Dawley", "design": "regimen Daily Repeat, gender Male, age 6-8 weeks", "conditions": "in vivo, po, 1100 mg/kg, route oral GAVAGE, dose level High, vehicle .5 % CMC; for ABSOLUTE BASOPHIL / ABSOLUTE EOSINOPHIL / ABSOLUTE LYMPHOCYTE / ABSOLUTE MONOCYTE / ABSOLUTE SEGMENTED NEUTROPHIL / BASOPHIL / EOSINOPHIL / ERYTHROCYTE COUNT / HEMATOCRIT / HEMOGLOBIN / LEUKOCYTE COUNT / LYMPHOCYTE / MEAN CORPUSCULAR HEMOGLOBIN / MEAN CORPUSCULAR HEMOGLOBIN CONCENTRATION / MEAN CORPUSCULAR VOLUME / MONOCYTE / NEUTROPHIL / NUCLEATED RED BLOOD CELLS / PLATELET COUNT: tissue Blood; for ALANINE AMINOTRANSFERASE / ALBUMIN / ALKALINE PHOSPHATASE / ASPARTATE AMINOTRANSFERASE / BLOOD UREA NITROGEN / CARBON DIOXIDE / CHLORIDE / CHOLESTEROL / CREATINE PHOSPHOKINASE / CREATININE / GLUCOSE / LACTATE DEHYDROGENASE / LIPASE / PHOSPHORUS / POTASSIUM / SODIUM / TOTAL BILIRUBIN / URIC ACID: tissue Plasma"}
{"smiles": "COc1cc(NS(=O)(=O)c2ccc(N)cc2)nc(OC)n1", "note": "[SULFADIMETHOXINE]", "values": [{"measurement": "ABSOLUTE BASOPHIL", "setting": "72 h, time 3 day", "value": 0, "unit": "CELLS/uL"}, {"measurement": "ABSOLUTE EOSINOPHIL", "setting": "72 h, time 3 day", "value": 176, "unit": "CELLS/uL"}, {"measurement": "ABSOLUTE LYMPHOCYTE", "setting": "72 h, time 3 day", "value": 8678, "unit": "CELLS/uL"}, {"measurement": "ABSOLUTE MONOCYTE", "setting": "72 h, time 3 day", "value": 307.33, "unit": "CELLS/uL"}, {"measurement": "ABSOLUTE SEGMENTED NEUTROPHIL", "setting": "72 h, time 3 day", "value": 1105.33, "unit": "CELLS/uL"}, {"measurement": "BASOPHIL", "setting": "72 h, time 3 day", "value": 0, "unit": "%"}, {"measurement": "EOSINOPHIL", "setting": "72 h, time 3 day", "value": 1.67, "unit": "%"}, {"measurement": "ERYTHROCYTE COUNT", "setting": "72 h, time 3 day", "value": 5.56, "unit": "x10E6/uL"}, {"measurement": "HEMATOCRIT", "setting": "72 h, time 3 day", "value": 35.03, "unit": "%"}, {"measurement": "HEMOGLOBIN", "setting": "72 h, time 3 day", "value": 13.43, "unit": "G/DL"}, {"measurement": "LEUKOCYTE COUNT", "setting": "72 h, time 3 day", "value": 10.27, "unit": "x10E3/uL"}, {"measurement": "LYMPHOCYTE", "setting": "72 h, time 3 day", "value": 84.67, "unit": "%"}, {"measurement": "MEAN CORPUSCULAR HEMOGLOBIN", "setting": "72 h, time 3 day", "value": 24.13, "unit": "pg"}, {"measurement": "MEAN CORPUSCULAR HEMOGLOBIN CONCENTRATION", "setting": "72 h, time 3 day", "value": 38.37, "unit": "G/DL"}, {"measurement": "MEAN CORPUSCULAR VOLUME", "setting": "72 h, time 3 day", "value": 62.93, "unit": "fL"}, {"measurement": "MONOCYTE", "setting": "72 h, time 3 day", "value": 3, "unit": "%"}, {"measurement": "NEUTROPHIL", "setting": "72 h, time 3 day", "value": 10.67, "unit": "%"}, {"measurement": "NUCLEATED RED BLOOD CELLS", "setting": "72 h, time 3 day", "value": "0 /100WBC"}, {"measurement": "PLATELET COUNT", "setting": "72 h, time 3 day", "value": 1279, "unit": "x10E3/uL"}, {"measurement": "ALANINE AMINOTRANSFERASE", "setting": "72 h, time 3 day", "value": 62.67, "unit": "u/L"}, {"measurement": "ALBUMIN", "setting": "72 h, time 3 day", "value": 4.6, "unit": "G/DL"}, {"measurement": "ALKALINE PHOSPHATASE", "setting": "72 h, time 3 day", "value": 393.67, "unit": "u/L"}, {"measurement": "ASPARTATE AMINOTRANSFERASE", "setting": "72 h, time 3 day", "value": 75.67, "unit": "u/L"}, {"measurement": "BLOOD UREA NITROGEN", "setting": "72 h, time 3 day", "value": 18, "unit": "mg/dL"}, {"measurement": "CARBON DIOXIDE", "setting": "72 h, time 3 day", "value": 27.67, "unit": "mmol/L"}, {"measurement": "CHLORIDE", "setting": "72 h, time 3 day", "value": 102.67, "unit": "MEQ/L"}, {"measurement": "CHOLESTEROL", "setting": "72 h, time 3 day", "value": 67.67, "unit": "mg/dL"}, {"measurement": "CREATINE PHOSPHOKINASE", "setting": "72 h, time 3 day", "value": 189.67, "unit": "u/L"}, {"measurement": "CREATININE", "setting": "72 h, time 3 day", "value": 0.32, "unit": "mg/dL"}, {"measurement": "GLUCOSE", "setting": "72 h, time 3 day", "value": 153.33, "unit": "mg/dL"}, {"measurement": "LACTATE DEHYDROGENASE", "setting": "72 h, time 3 day", "value": 129.33, "unit": "u/L"}, {"measurement": "LIPASE", "setting": "72 h, time 3 day", "value": 9.33, "unit": "u/L"}, {"measurement": "PHOSPHORUS", "setting": "72 h, time 3 day", "value": 12.17, "unit": "mg/dL"}, {"measurement": "POTASSIUM", "setting": "72 h, time 3 day", "value": 6.03, "unit": "MEQ/L"}, {"measurement": "SODIUM", "setting": "72 h, time 3 day", "value": 145.53, "unit": "MEQ/L"}, {"measurement": "TOTAL BILIRUBIN", "setting": "72 h, time 3 day", "value": 0.17, "unit": "mg/dL"}, {"measurement": "URIC ACID", "setting": "72 h, time 3 day", "value": 1.37, "unit": "mg/dL"}, {"measurement": "ABSOLUTE BASOPHIL", "setting": "120 h, time 5 day", "value": 0, "unit": "CELLS/uL"}, {"measurement": "ABSOLUTE EOSINOPHIL", "setting": "120 h, time 5 day", "value": 186.33, "unit": "CELLS/uL"}, {"measurement": "ABSOLUTE LYMPHOCYTE", "setting": "120 h, time 5 day", "value": 11316.33, "unit": "CELLS/uL"}, {"measurement": "ABSOLUTE MONOCYTE", "setting": "120 h, time 5 day", "value": 266.33, "unit": "CELLS/uL"}, {"measurement": "ABSOLUTE SEGMENTED NEUTROPHIL", "setting": "120 h, time 5 day", "value": 1431, "unit": "CELLS/uL"}, {"measurement": "BASOPHIL", "setting": "120 h, time 5 day", "value": 0, "unit": "%"}, {"measurement": "EOSINOPHIL", "setting": "120 h, time 5 day", "value": 1.33, "unit": "%"}, {"measurement": "ERYTHROCYTE COUNT", "setting": "120 h, time 5 day", "value": 5.62, "unit": "x10E6/uL"}, {"measurement": "HEMATOCRIT", "setting": "120 h, time 5 day", "value": 35.53, "unit": "%"}, {"measurement": "HEMOGLOBIN", "setting": "120 h, time 5 day", "value": 13.53, "unit": "G/DL"}, {"measurement": "LEUKOCYTE COUNT", "setting": "120 h, time 5 day", "value": 13.2, "unit": "x10E3/uL"}, {"measurement": "LYMPHOCYTE", "setting": "120 h, time 5 day", "value": 86, "unit": "%"}, {"measurement": "MEAN CORPUSCULAR HEMOGLOBIN", "setting": "120 h, time 5 day", "value": 24.1, "unit": "pg"}, {"measurement": "MEAN CORPUSCULAR HEMOGLOBIN CONCENTRATION", "setting": "120 h, time 5 day", "value": 38.1, "unit": "G/DL"}, {"measurement": "MEAN CORPUSCULAR VOLUME", "setting": "120 h, time 5 day", "value": 63.17, "unit": "fL"}, {"measurement": "MONOCYTE", "setting": "120 h, time 5 day", "value": 2, "unit": "%"}, {"measurement": "NEUTROPHIL", "setting": "120 h, time 5 day", "value": 10.67, "unit": "%"}, {"measurement": "NUCLEATED RED BLOOD CELLS", "setting": "120 h, time 5 day", "value": "0 /100WBC"}, {"measurement": "PLATELET COUNT", "setting": "120 h, time 5 day", "value": 1313.67, "unit": "x10E3/uL"}, {"measurement": "ALANINE AMINOTRANSFERASE", "setting": "120 h, time 5 day", "value": 48.67, "unit": "u/L"}, {"measurement": "ALBUMIN", "setting": "120 h, time 5 day", "value": 4.57, "unit": "G/DL"}, {"measurement": "ALKALINE PHOSPHATASE", "setting": "120 h, time 5 day", "value": 294.67, "unit": "u/L"}, {"measurement": "ASPARTATE AMINOTRANSFERASE", "setting": "120 h, time 5 day", "value": 97, "unit": "u/L"}, {"measurement": "BLOOD UREA NITROGEN", "setting": "120 h, time 5 day", "value": 21.67, "unit": "mg/dL"}, {"measurement": "CARBON DIOXIDE", "setting": "120 h, time 5 day", "value": 25.33, "unit": "mmol/L"}, {"measurement": "CHLORIDE", "setting": "120 h, time 5 day", "value": 102.33, "unit": "MEQ/L"}, {"measurement": "CHOLESTEROL", "setting": "120 h, time 5 day", "value": 65, "unit": "mg/dL"}, {"measurement": "CREATINE PHOSPHOKINASE", "setting": "120 h, time 5 day", "value": 679, "unit": "u/L"}, {"measurement": "CREATININE", "setting": "120 h, time 5 day", "value": 0.26, "unit": "mg/dL"}, {"measurement": "GLUCOSE", "setting": "120 h, time 5 day", "value": 151.67, "unit": "mg/dL"}, {"measurement": "LACTATE DEHYDROGENASE", "setting": "120 h, time 5 day", "value": 445, "unit": "u/L"}, {"measurement": "LIPASE", "setting": "120 h, time 5 day", "value": 8.67, "unit": "u/L"}, {"measurement": "PHOSPHORUS", "setting": "120 h, time 5 day", "value": 11.87, "unit": "mg/dL"}, {"measurement": "POTASSIUM", "setting": "120 h, time 5 day", "value": 5.23, "unit": "MEQ/L"}, {"measurement": "SODIUM", "setting": "120 h, time 5 day", "value": 144.1, "unit": "MEQ/L"}, {"measurement": "TOTAL BILIRUBIN", "setting": "120 h, time 5 day", "value": 0.1, "unit": "mg/dL"}, {"measurement": "URIC ACID", "setting": "120 h, time 5 day", "value": 1.4, "unit": "mg/dL"}]}
